± gives the expanded uncertainty stated by the source. Values belong to the compound of their own block, whether it stands above or below them.
Legend:
[1] = Liquid; for mass density: 101.33 kPa
[2] = refractive index (Na D-line) (dimensionless); settings: 101.33 kPa, Liquid, Standard Abbe refractometry
[3] = 298.15 K, Vibrating tube method

SMILES: CC(=O)CC(C)=O [2,4-pentanedione]
- mass density [1, 3]: 972 ± 2 kg/m3
- vapor or sublimation pressure ([1]; 409.35 K): 95.5 ± 4 kPa
- refractive index ([2]; 293.15 K): 1.4511 ± 0.0008

SMILES: COc1ccccc1 [anisole]
- mass density [1, 3]: 989.3 ± 2 kg/m3
- vapor or sublimation pressure ([1]; 424.65 K): 95.5 ± 4 kPa
- refractive index ([2]; 298.15 K): 1.5142 ± 0.0008

SMILES: Brc1ccccc1 [bromobenzene]
- mass density [1, 3]: 1488.3 ± 2 kg/m3
- vapor or sublimation pressure ([1]; 427.05 K): 95.5 ± 4 kPa
- refractive index ([2]; 298.15 K): 1.5571 ± 0.0008

SMILES: CCO[Si](OCC)(OCC)OCC [tetraethoxysilane]
- mass density [1, 3]: 933.4 ± 2 kg/m3
- vapor or sublimation pressure ([1]; 439.55 K): 95.5 ± 4 kPa
- refractive index ([2]; 298.15 K): 1.3825 ± 0.0008

Results, then the compound that gave them:

- mass density ([1]; 303.15 K, Vibrating tube method): 742 ± 2 kg/m3
- vapor or sublimation pressure ([1]; 326.45 K): 95.5 ± 4 kPa
- refractive index ([2]; 293.15 K): 1.369 ± 0.0008
SMILES: COC(C)(C)C [2-methoxy-2-methylpropane]

- mass density ([1]; 298.15 K): 776.5 ± 2 kg/m3
- vapor or sublimation pressure ([1]; 352.15 K): 95.5 ± 4 kPa
- vapor or sublimation pressure ([1]; 352.55 K): 95.5 ± 4 kPa
- refractive index ([2]; 298.15 K): 1.3416 ± 0.0008
SMILES: CC#N [acetonitrile]

- mass density [1, 3]: 781.3 ± 2 kg/m3
- vapor or sublimation pressure ([1]; 354.05 K): 95.5 ± 4 kPa
- refractive index ([2]; 298.15 K): 1.3751 ± 0.0008
SMILES: CC(C)O [propan-2-ol]

From the NIST ThermoML archive (doi:10.1016/j.jct.2007.03.007)
